Results on one compound are retold here after publication PMC8552062, “Contributions of UDP-Glucuronosyltransferases to Human Hepatic and Intestinal Metabolism of Ticagrelor and Inhibition of UGTs and Cytochrome P450 Enzymes by Ticagrelor and its Glucuronidated Metabolite” (Frontiers in Pharmacology, 2021).

This data set concerns the target T1, UGT1A9 (Homo sapiens, UniProt O60656).
T1 sequence (O60656 26-530): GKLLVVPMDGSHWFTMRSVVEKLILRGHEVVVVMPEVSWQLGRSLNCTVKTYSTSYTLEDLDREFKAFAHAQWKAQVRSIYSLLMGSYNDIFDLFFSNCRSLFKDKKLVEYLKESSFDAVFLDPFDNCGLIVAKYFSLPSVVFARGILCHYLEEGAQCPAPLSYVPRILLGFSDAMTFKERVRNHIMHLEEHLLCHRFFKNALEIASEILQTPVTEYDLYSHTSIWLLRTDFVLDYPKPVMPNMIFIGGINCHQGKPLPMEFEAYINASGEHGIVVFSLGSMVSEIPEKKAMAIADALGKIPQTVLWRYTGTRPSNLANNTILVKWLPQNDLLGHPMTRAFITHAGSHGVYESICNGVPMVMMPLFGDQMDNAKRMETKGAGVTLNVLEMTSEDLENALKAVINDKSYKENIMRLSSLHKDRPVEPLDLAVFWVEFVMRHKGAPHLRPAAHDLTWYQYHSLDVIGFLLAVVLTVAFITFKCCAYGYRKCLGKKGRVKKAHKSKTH
As to the kind of experiment: Ticagrelor glucuronidation by recombinant human UGT1A9. Conditions: recombinant human UGT1A9, pH 7.4. Further details: purchased BD Gentest; host or cells: baculovirus-infected insect cells. It is filed as in vitro ADME. The method, then: Ticagrelor glucuronidation was investigated in an in vitro incubation system by using HLM, HIM, and recombinant human UGTs. The incubation system consisted of enzyme sources (HLM, HIM, or human recombinant UGTs), various concentrations of ticagrelor (dissolved in 50% methanol, 1% v/v, 1, 2, 5, 10, 20, 50, 100, 200, 500 μM of final concentration), alamethicin (50 μg/mg protein), 5 mM MgCl2, 100 mM tris-HCL buffer (pH 7.4), and 5 mM UDPGA in a total volume of 100 μl. Alamethicin is a pore-forming polypeptide used to activate UGTs in HLM and HIM ([Fisher et al., 2000]). Preliminary studies were conducted to determine the optimal protein concentrations and incubation times. Linear conditions of ticagrelor-O-Glu formation from ticagrelor, i.e., HLM, 0.2 mg of protein/ml and 60 min, HIM, 0.2 mg of protein/ml and 60 min, and recombinant human UGTs, 0.2 mg of protein/ml and 60 min were selected. The incubation mixture without UDPGA was placed on ice for 15 min to activate UGT by alamethicin. […]
Kinetic analyses were performed using the mean values of triplicate determinations with either pooled HLM, HIM, or recombinant human UGTs. All data were analyzed by nonlinear regression analysis using the GraphPad Prism 6 (GraphPad Software Inc., CA, United States). […] Intrinsic clearance (CLint) was calculated by dividing Vmax by Km.

What is called microsomal CLint is the capacity of the preparation to metabolise the compound, expressed as a volume cleared per time.

Take `CCCSc1nc(N[C@@H]2C[C@H]2c2ccc(F)c(F)c2)c2nnn([C@@H]3C[C@H](OCCO)[C@@H](O)[C@H]3O)c2n1` [Ticagrelor]: the microsomal CLint is 0.56 µL/min/mg.
